Test results as given in ChEMBL document CHEMBL4411296, “Design and development of Isatin-triazole hydrazones as potential inhibitors of microtubule affinity-regulating kinase 4 for the therapeutic management of cell proliferation and metastasis” (Eur J Med Chem, 2019).

What was measured:
Format in all cases: functional
[1] = system: CCRF-CEM; experiment: Growth inhibition of human CCRF-CEM cells assessed as cell growth at 10 uM after 48 hrs by sulforhodamine B assay relative to control; conditions: read-out: Activity
[2] = system: K562; experiment: Growth inhibition of human K562 cells assessed as cell growth at 10 uM after 48 hrs by sulforhodamine B assay relative to control; conditions: K562, 48 h, read-out: Activity
[3] = system: SR; experiment: Growth inhibition of human SR cells assessed as cell growth at 10 uM after 48 hrs by sulforhodamine B assay relative to control; conditions: read-out: Activity
[4] = system: HOP-92; experiment: Growth inhibition of human HOP92 cells assessed as cell growth at 10 uM after 48 hrs by sulforhodamine B assay relative to control; conditions: HOP-92, 48 h, read-out: Activity
[5] = system: NCI-H226; experiment: Growth inhibition of human NCI-H226 cells assessed as cell growth at 10 uM after 48 hrs by sulforhodamine B assay relative to control; conditions: NCI-H226, 48 h, read-out: Activity
[6] = system: NCI-H23; experiment: Growth inhibition of human NCI-H23 cells assessed as cell growth at 10 uM after 48 hrs by sulforhodamine B assay relative to control; conditions: NCI-H23, 48 h, read-out: Activity
[7] = system: NCI-H322M; experiment: Growth inhibition of human NCI-H322M cells assessed as cell growth at 10 uM after 48 hrs by sulforhodamine B assay relative to control; conditions: read-out: Activity
[8] = system: NCI-H522; experiment: Growth inhibition of human NCI-H522 cells assessed as cell growth at 10 uM after 48 hrs by sulforhodamine B assay relative to control; conditions: NCI-H522, 48 h, read-out: Activity
[9] = system: COLO 205; experiment: Growth inhibition of human COLO205 cells assessed as cell growth at 10 uM after 48 hrs by sulforhodamine B assay relative to control; conditions: COLO 205, 48 h, read-out: Activity
[10] = system: SW-620; experiment: Growth inhibition of human SW620 cells assessed as cell growth at 10 uM after 48 hrs by sulforhodamine B assay relative to control; conditions: SW-620, 48 h, read-out: Activity
[11] = system: SF-295; experiment: Growth inhibition of human SF295 cells assessed as cell growth at 10 uM after 48 hrs by sulforhodamine B assay relative to control; conditions: SF-295, 48 h, read-out: Activity
[12] = system: SNB-75; experiment: Growth inhibition of human SNB75 cells assessed as cell growth at 10 uM after 48 hrs by sulforhodamine B assay relative to control; conditions: SNB-75, 48 h, read-out: Activity
[13] = system: U-251; experiment: Growth inhibition of human U251 cells assessed as cell growth at 10 uM after 48 hrs by sulforhodamine B assay relative to control; conditions: U-251, 48 h, read-out: Activity
[14] = system: SK-MEL-28; experiment: Growth inhibition of human SK-MEL-28 cells assessed as cell growth at 10 uM after 48 hrs by sulforhodamine B assay relative to control; conditions: SK-MEL-28, 48 h, read-out: Activity
[15] = system: UACC-257; experiment: Growth inhibition of human UACC257 cells assessed as cell growth at 10 uM after 48 hrs by sulforhodamine B assay relative to control; conditions: UACC-257, 48 h, read-out: Activity
[16] = system: OVCAR-3; experiment: Growth inhibition of human OVCAR3 cells assessed as cell growth at 10 uM after 48 hrs by sulforhodamine B assay relative to control; conditions: OVCAR-3, 48 h, read-out: Activity
[17] = system: OVCAR-4; experiment: Growth inhibition of human OVCAR4 cells assessed as cell growth at 10 uM after 48 hrs by sulforhodamine B assay relative to control; conditions: OVCAR-4, 48 h, read-out: Activity
[18] = system: SK-OV-3; experiment: Growth inhibition of human SKOV3 cells assessed as cell growth at 10 uM after 48 hrs by sulforhodamine B assay relative to control; conditions: SK-OV-3, 48 h, read-out: Activity
[19] = system: 786-0; experiment: Growth inhibition of human 786-0 cells assessed as cell growth at 10 uM after 48 hrs by sulforhodamine B assay relative to control; conditions: 786-0, 48 h, read-out: Activity
[20] = system: A498; experiment: Growth inhibition of human A498 cells assessed as cell growth at 10 uM after 48 hrs by sulforhodamine B assay relative to control; conditions: A498, 48 h, read-out: Activity
[21] = system: UO-31; experiment: Growth inhibition of human UO31 cells assessed as cell growth at 10 uM after 48 hrs by sulforhodamine B assay relative to control; conditions: UO-31, 48 h, read-out: Activity
[22] = system: DU-145; experiment: Growth inhibition of human DU145 cells assessed as cell growth at 10 uM after 48 hrs by sulforhodamine B assay relative to control; conditions: DU-145, 48 h, read-out: Activity
[23] = system: MCF7; experiment: Growth inhibition of human MCF7 cells assessed as cell growth at 10 uM after 48 hrs by sulforhodamine B assay relative to control; conditions: MCF7, 48 h, read-out: Activity
[24] = system: BT-549; experiment: Growth inhibition of human BT549 cells assessed as cell growth at 10 uM after 48 hrs by sulforhodamine B assay relative to control; conditions: BT-549, 48 h, read-out: Activity
[25] = system: T47D; experiment: Growth inhibition of human T47D cells assessed as cell growth at 10 uM after 48 hrs by sulforhodamine B assay relative to control; conditions: read-out: Activity
[26] = system: MDA-MB-468; experiment: Growth inhibition of human MDA-MB-468 cells assessed as cell growth at 10 uM after 48 hrs by sulforhodamine B assay relative to control; conditions: MDA-MB-468, 48 h, read-out: Activity

SMILES	growth at 10 µM [1] [%]	growth at 10 µM [2] [%]	growth at 10 µM [3] [%]	growth at 10 µM [4] [%]	growth at 10 µM [5] [%]	growth at 10 µM [6] [%]	growth at 10 µM [7] [%]	growth at 10 µM [8] [%]	growth at 10 µM [9] [%]	growth at 10 µM [10] [%]	growth at 10 µM [11] [%]	growth at 10 µM [12] [%]	growth at 10 µM [13] [%]	growth at 10 µM [14] [%]	growth at 10 µM [15] [%]	growth at 10 µM [16] [%]	growth at 10 µM [17] [%]	growth at 10 µM [18] [%]	growth at 10 µM [19] [%]	growth at 10 µM [20] [%]	also measured
COc1ccc(Cn2cc(C(=O)N/N=C3/C(=O)Nc4ccc(Cl)cc43)nn2)cc1	94.7	91.2	80.6	116	96.8	104	104	90.6	117	99.7	108	115	107	113	113	109	100	119	99.8	96.6	growth at 10 µM [21]: 90.7%; growth at 10 µM [22]: 102%; growth at 10 µM [23]: 91.5%; growth at 10 µM [24]: 116%; growth at 10 µM [25]: 101%; growth at 10 µM [26]: 97.2%
COc1ccc(Cn2cc(C(=O)N/N=C3/C(=O)Nc4c(Cl)cccc43)nn2)cc1	106	89.2	80.3	105	102	99.3	101	84	114	99.7	109	82	102	115	92.9	113	104	113	106	93.8	growth at 10 µM [21]: 93.5%; growth at 10 µM [22]: 105%; growth at 10 µM [23]: 84.3%; growth at 10 µM [24]: 111%; growth at 10 µM [25]: 100%; growth at 10 µM [26]: 98.6%
COc1ccc(Cn2cc(C(=O)N/N=C3/C(=O)Nc4ccc(C)cc43)nn2)cc1	98.1	87.8	86	121	93	104	102	83.6	107	104	111	110	105	111	101	108	104	113	96.3	91.6	growth at 10 µM [21]: 95%; growth at 10 µM [22]: 96%; growth at 10 µM [23]: 89.2%; growth at 10 µM [24]: 112%; growth at 10 µM [25]: 104%; growth at 10 µM [26]: 99.2%
COc1ccc(Cn2cc(C(=O)N/N=C3/C(=O)Nc4ccc(Br)cc43)nn2)cc1	92.5	88.1	77.5	114	97.5	102	102	89.1	115	107	95.8	112	105	116	102	112	105	108	99.6	97.1	growth at 10 µM [21]: 91.5%; growth at 10 µM [22]: 93.7%; growth at 10 µM [23]: 86.3%; growth at 10 µM [24]: 111%; growth at 10 µM [25]: 106%; growth at 10 µM [26]: 96.8%
